The source of these data is ChEMBL document CHEMBL4261602, “Tri-armed ligands of G-quadruplex on heteroarene-fused anthraquinone scaffolds: Design, synthesis and pre-screening of biological properties” (Eur J Med Chem, 2018).

Data set [1] is described as follows: Selectivity ratio of Kb for human FAM-5'-d(AGGGTTAGGGTTAGGGTTAGGG)-3'-BHQ1 telomeric G4 quadruplex DNA to Kb for d(CAATCGGATCGAATTCGATCCGATTG) DNA (unknown origin).
In data set [2] the test system is Quadruplex DNA. Kind of data set: Stabilization of human FAM-5'-d(AGGGTTAGGGTTAGGGTTAGGG)-3'-BHQ1 telomeric G4 quadruplex DNA assessed as change in melting temperature at 1 uM in presence of 50 fold excess of competitor ds26 oligonucleotide DNA by FRET assay. In kind it is nucleic-acid assay.
Data set [3] relates to Quadruplex DNA. Kind of data set: Stabilization of human FAM-5'-d(AGGGTTAGGGTTAGGGTTAGGG)-3'-BHQ1 telomeric G4 quadruplex DNA assessed as change in melting temperature at 1 uM by FRET assay. Format: nucleic-acid assay.
In data set [4] the test system is Quadruplex DNA. Kind of data set: Stabilization of human FAM-5'-d(AGGGTTAGGGTTAGGGTTAGGG)-3'-BHQ1 telomeric G4 quadruplex DNA assessed as binding constant at 1 uM by FRET assay. In kind it is nucleic-acid assay.
Data set [5] is described as follows: Stabilization of d(CAATCGGATCGAATTCGATCCGATTG) DNA (unknown origin) assessed as binding constant at 1 uM by FRET assay.
Data set [6] concerns HeLa. In words: Antiproliferative activity in human HeLa cells after 72 hrs by MTT assay. Format: functional, cell-based. On the technique in general: Tetrazolium assays rely on reduction of a dye to a coloured formazan, in cell work by metabolically active cells.
The subject of data set [7] is L1210. In words: Antiproliferative activity in mouse L1210 cells after 48 hrs by MTT assay. In kind it is functional, cell-based. The settings on record: L1210, 48 h.
Data set [8] concerns CCRF-CEM. In words: Antiproliferative activity in human CEM cells after 72 hrs by MTT assay. In kind it is functional, cell-based.
Data set [9] in a line: Drug uptake in human K562 cells at 1 uM within 15 mins by flow cytometry analysis. Format: ADME, cell-based. The settings on record: k562, 0.25 h.

As usually defined, the ΔTm is the shift of the melting midpoint relative to a reference. One may read the IC50 as the concentration at which inhibition is half-maximal. Consider `N=C(N)NCCCNC(=O)c1cc2c(NCCCCCN)c3c(c(NCCCCCN)c2s1)C(=O)c1ccccc1C3=O`, for which the Selectivity ratio in data set [1] came to 2800. Also, the ΔTm was found to be 18 °C in [2] and 21 °C in [3]. In addition, the figures for the Kb in [4] and in data set [5] were 38 ×10⁶ /M and 0.01 ×10⁶ /M, respectively. Further, the IC50 in data set [6] turned out to be 12 µM; in data set [7], 19 µM; in data set [8], 21 µM. In data set [9], the Drug uptake entry was “Active”.

For `N=C(N)NCCNc1c2c(c(NCCNC(=N)N)c3sccc13)C(=O)c1ccccc1C2=O`, the Selectivity ratio in data set [1] turned out to be 60. The ΔTm in data set [2] stood at 1 °C; in data set [3], 11 °C. Besides, the Kb in [4] turned out to be 6 ×10⁶ /M; in data set [5], 0.1 ×10⁶ /M. In data set [6], this molecule displayed an IC50 of 13 µM. The Drug uptake entry in [9] is “Active”.

For `N=C(N)NCCCNC(=O)c1cc2c(NCCCCCN)c3c(c(NCCCCCN)c2o1)C(=O)c1ccccc1C3=O`, in data set [1], the Selectivity ratio was found to be 1500. Moreover, the ΔTm in [2] was 15 °C; in data set [3] it was 18 °C. Moreover, the Kb stood at 22 ×10⁶ /M in [4] and 0.01 ×10⁶ /M in data set [5]. The results for the IC50 in [6], in [7] and in [8] were 14 µM, 17 µM and 15 µM, respectively.

Take `N=C(N)NCCCNC(=O)c1cc2c(NCCNC(=N)N)c3c(c(NCCNC(=N)N)c2s1)C(=O)c1ccccc1C3=O`: the Selectivity ratio in data set [1] was found to be 1300. For the same molecule, the results for the ΔTm in data set [2] and in data set [3] were 19 °C and 20.5 °C, respectively. Besides, the Kb is 40 ×10⁶ /M in data set [4] and 0.03 ×10⁶ /M in [5]. Further, the IC50 came out at 15 µM in data set [6], 13 µM in data set [7] and 13 µM in [8]. Also, the Drug uptake entry in data set [9] is listed as “Active”.

In the case of `N=C(N)NCCCNC(=O)c1cc2c(NCCCNC(=N)N)c3c(c(NCCCNC(=N)N)c2s1)C(=O)c1ccccc1C3=O`, the Selectivity ratio in data set [1] was found to be 1700. Besides, the figures for the ΔTm in data set [2] and in data set [3] were 17 °C and 22 °C, respectively. For the same molecule, the Kb in data set [4] is 47 ×10⁶ /M; in [5] it was 0.03 ×10⁶ /M. Also, the results for the IC50 in [6], in data set [7] and in data set [8] were 18 µM, 10 µM and 11 µM, respectively.

As for `N=C(N)NCCCNc1c2c(c(NCCCNC(=N)N)c3sc(C(=O)NCCNC(=N)N)cc13)C(=O)c1ccccc1C2=O`, the ΔTm in data set [2] and in [3] was 21 °C throughout. For the same molecule, the Kb in data set [4] came out at 44 ×10⁶ /M. The IC50 in [6] turned out to be 17 µM; in data set [7] it was 9 µM; in [8] it was 12 µM.

As for `N=C(N)NCCCNC(=O)c1cc2c(NCCCNC(=N)N)c3c(c(NCCCNC(=N)N)c2o1)C(=O)c1ccccc1C3=O`, in [1], the Selectivity ratio came to 4550. Also, the ΔTm in data set [2] is 24 °C; in [3], 25 °C. The Kb in data set [4] was found to be 91 ×10⁶ /M; in data set [5], 0.02 ×10⁶ /M. Also, the IC50 was 17 µM in data set [6], 18 µM in [7] and 17 µM in data set [8].

As for `N=C(N)NCCNC(=O)c1cc2c(NCCCCCN)c3c(c(NCCCCCN)c2o1)C(=O)c1ccccc1C3=O`, the Selectivity ratio in data set [1] came out at 850. For the same molecule, the shift in melting temperature (ΔTm) was determined as 13 °C in data set [2] and 18 °C in data set [3]. Besides, the figures for the Kb in data set [4] and in data set [5] were 22 ×10⁶ /M and 0.03 ×10⁶ /M, respectively. Moreover, the IC50 in data set [6] was found to be 11 µM; in data set [7], 19 µM; in [8] it was 18 µM.

Consider `N=C(N)NCCNC(=O)c1cc2c(NCCNC(=N)N)c3c(c(NCCNC(=N)N)c2o1)C(=O)c1ccccc1C3=O`, for which the Selectivity ratio in data set [1] was 2300. In addition, the ΔTm in data set [2] is 20.3 °C; in [3], 21.3 °C. Further, the Kb in data set [4] was determined as 46 ×10⁶ /M; in data set [5], 0.02 ×10⁶ /M. For the same molecule, the IC50 in [6] turned out to be 14 µM; in data set [7] it was 9 µM; in data set [8], 12 µM.

For `N=C(N)NCCCNC(=O)c1cc2c(NCCOCCN)c3c(c(NCCOCCN)c2s1)C(=O)c1ccccc1C3=O`, the Selectivity ratio in data set [1] stood at 950. The figures for the ΔTm in data set [2] and in data set [3] were 14 °C and 20 °C, respectively. Also, the Kb came out at 29 ×10⁶ /M in data set [4] and 0.03 ×10⁶ /M in [5]. The figures for the concentration for half-maximal inhibition (IC50) in data set [6], in data set [7] and in [8] were 9 µM, 10 µM and 11 µM, respectively.

As to `N=C(N)NCCCNC(=O)c1cc2c(NCCCCN)c3c(c(NCCCCN)c2s1)C(=O)c1ccccc1C3=O`, in data set [1], the Selectivity ratio stood at 2500. In addition, the ΔTm was found to be 18 °C in data set [2] and 22 °C in data set [3]. Moreover, the results for the Kb in data set [4] and in data set [5] were 45 ×10⁶ /M and 0.02 ×10⁶ /M, respectively. The IC50 in data set [6] turned out to be 11 µM; in [7] it was 12 µM; in data set [8], 16 µM.

`N=C(N)NCCNC(=O)c1cc2c(NCCNC(=N)N)c3c(c(NCCNC(=N)N)c2s1)C(=O)c1ccccc1C3=O`: the Selectivity ratio in [1] was determined as 300. Moreover, the ΔTm is 10 °C in data set [2] and 20 °C in data set [3]. The Kb in [4] worked out at 33 ×10⁶ /M; in [5], 0.1 ×10⁶ /M. For the same molecule, the figures for the IC50 in [6], in data set [7] and in [8] were 18 µM, 12 µM and 16 µM, respectively.
